Experimental data taken from patent EP4628519A1, “ORGANOGERMANIUM(IV) CARBOXYLATES AND MIXTURES OF GERMANIUM CARBOXYLATES WITH ORGANIC ACID ANHYDRIDES AS CATALYSTS” (Technische Universität Graz, priority 2024, dated 2025).

How the values were obtained:
[1] = Solubility of the germanium carboxylates in solvents (gravimetry or NMR)
[2] = Stability in water; details: result in words

Q: With `CCCCCCCCCCCC(=O)[O][Ge]([O]C(=O)CCCCCCCCCCC)([O]C(=O)CCCCCCCCCCC)[O]C(=O)CCCCCCCCCCC` [Ge(OLau)4, germanium(IV) tetralaurate] as the compound, how does the “solubility, times higher” value ([1]; Ge(OLau)4 relative to Ge(OAc)4) read?
A: Its value is “around 2 times”.

Q: What about the solubility ([1]; in benzene, determined via NMR) of the same compound?
A: Its solubility is 11000 µg/mL.

Q: And the “solubility in organic solvents” value ([1]; result in words)?
A: The value was “poorly soluble”.

Q: With `CC(=O)OC(=O)C[CH2][Ge]([O]C(C)=O)([O]C(C)=O)[O]C(C)=O` [(PAA)Ge(OAc)3] as the compound, how does the “solubility in organic solvents” value ([1]; result in words) read?
A: The value was “good soluble”.

Q: For `COC(=O)C[CH2][Ge]([O]C(C)=O)([O]C(C)=O)[O]C(C)=O` [(PME)Ge(OAc)3], which “solubility in organic solvents” value ([1]; result in words) is on record?
A: Its value is “good soluble”.

Q: Which “solubility in organic solvents” value ([1]; result in words) does the source give for `CC(=O)[O][Ge]([O]C(C)=O)([O]C(C)=O)[c]1ccccc1` [PhGe(OAc)3] here?
A: Its value is “good soluble”.

Q: With `CC(=O)[O][Ge]([O]C(C)=O)([O]C(C)=O)[O]C(C)=O` [Ge(OAc)4, germanium(IV) tetraacetate] as the compound, how does the stability in water [2] read?
A: Its stability in water is “stable”.

Q: What about the “solubility in H2O” value ([1]; H2O, result in words) of the same compound?
A: Its value is “good soluble”.

Q: What about the “m(Ge(OAc)4)” value ([1]; Solvent Benzene, Method NMR) of the same compound?
A: Its value is 2.7 g/L.

Q: What about the “m(Ge(OAc)4)” value ([1]; Solvent Chloroform, Method NMR) of the same compound?
A: Its value is 4.8 g/L.

Q: What about the “m(Ge(OAc)4)” value ([1]; Solvent DCM, Method Gravimetry) of the same compound?
A: Its value is 4.2 g/L.

Q: And the “m(Ge(OAc)4)” value ([1]; Solvent H2O, Method Gravimetry)?
A: The value was 170 g/L.

Q: And the “m(Ge(OAc)4)” value ([1]; Solvent THF, Method Gravimetry)?
A: Its value is 4.3 g/L.

Q: And the “m(Ge(OAc)4)” value ([1]; Solvent Toluene, Method Gravimetry)?
A: The value was 2.6 g/L.

Q: And the solubility ([1]; in toluene, at room temperature)?
A: Its solubility is 2600 µg/mL.

Q: And the “solubility in organic solvents” value ([1]; result in words)?
A: Its value is “poorly soluble”.
